Data published in patent publication US20120225061A1, “TETRASUBSTITUTED CYCLOHEXYL COMPOUNDS AS KINASE INHIBITORS” (priority 2011, published 2012).

Experiments:
[1] = system: KMS11 (human myeloma cell line); test: Cell proliferation assay (CellTiter-Glo) in KMS11 cells; type: cell-based; details: KMS-11, 72 h, Table 5, 3 days, read-out: KMS11-luc EC50
Method: KMS11 (human myeloma cell line), were cultured in IMDM supplemented with 10% FBS, sodium pyruvate and antibiotics. Cells were plated in the same medium at a density of 2000 cells per well into 96 well tissue culture plates, with outside wells vacant, on the day of assay.
Test compounds supplied in DMSO were diluted into DMSO at 500 times the desired final concentrations before dilution into culture media to 2 times final concentrations.
After 3 days plates were equilibrated to room temperature and equal volume of CellTiter-Glow Reagent (Promega) was added to the culture wells. The plates were agitated briefly and luminescent signal was measured with luminometer.

Pim1 kinase = Pim1 kinase (Homo sapiens, UniProt P11309); test: Pim1 AlphaScreen assay (high ATP)
Pim2 kinase = Pim2 kinase (Homo sapiens, UniProt Q9P1W9); test: Pim2 AlphaScreen assay (high ATP)
Pim3 kinase = Pim3 kinase (Homo sapiens, UniProt Q86V86); test: Pim3 AlphaScreen assay (high ATP)
Method: The activity of Pim 1, Pim 2, & Pim 3 is measured using a homogeneous bead based system quantifying the amount of phosphorylated peptide substrate resulting from kinase-catalyzed phosphoryl transfer to a peptide substrate. Compounds to be tested are dissolved in 100% DMSO and directly distributed to a white 384-well plate at 0.25 μl per well. […] This is followed by the addition of 5 μl/well of Pim 1, Pim 2 or Pim 3 kinase in assay buffer (concentrations described below). Final assay concentrations (described below) are in 2.5% DMSO. The reactions are performed for ˜2 hours, then stopped by the addition of 10 μl of 0.75 μg/ml anti-phospho Ser/Thr antibody (Cell Signaling), 10 μg/ml Protein A AlphaScreen beads (Perkin Elmer), and 10 μg/ml streptavidin coated AlphaScreen beads in stop/detection buffer (50 mM EDTA, 95 mM Tris, pH=7.5, 0.01% Tween-20). The stopped reactions are incubated overnight in the dark. The phosphorylated peptide is detected via an oxygen anion initiated chemiluminescence/fluorescence cascade using the Envision plate reader (Perkin Elmer).

Pim1 kinase, sequence (P11309 whole entry): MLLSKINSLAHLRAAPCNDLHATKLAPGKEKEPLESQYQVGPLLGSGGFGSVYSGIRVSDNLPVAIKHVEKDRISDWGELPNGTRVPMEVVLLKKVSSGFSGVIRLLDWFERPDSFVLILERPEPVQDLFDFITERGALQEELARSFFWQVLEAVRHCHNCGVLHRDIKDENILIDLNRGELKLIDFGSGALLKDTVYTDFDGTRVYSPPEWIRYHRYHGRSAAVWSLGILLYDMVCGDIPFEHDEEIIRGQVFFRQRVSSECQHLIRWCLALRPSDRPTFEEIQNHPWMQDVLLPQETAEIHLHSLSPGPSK
Pim2 kinase, sequence (Q9P1W9 whole entry): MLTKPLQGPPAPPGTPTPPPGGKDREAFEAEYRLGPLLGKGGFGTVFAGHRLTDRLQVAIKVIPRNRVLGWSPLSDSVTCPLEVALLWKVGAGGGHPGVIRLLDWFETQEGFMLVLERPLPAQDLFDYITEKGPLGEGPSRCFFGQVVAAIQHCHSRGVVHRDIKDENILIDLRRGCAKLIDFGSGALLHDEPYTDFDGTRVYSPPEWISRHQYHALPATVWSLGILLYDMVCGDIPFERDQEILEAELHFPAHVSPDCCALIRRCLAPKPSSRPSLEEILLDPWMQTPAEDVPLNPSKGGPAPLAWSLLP

Row | SMILES | EC50 [1] | IC50 (Pim1 kinase) | IC50 (Pim2 kinase) | IC50 (Pim3 kinase)
1 | COCCOc1cc(F)c(-c2nc(C(=O)Nc3cnccc3[C@H]3C[C@@H](N)[C@](C)(O)[C@@H](C)C3)ccc2F)c(F)c1 [Example 7, N-(4-((1R,3R,4R,5S)-3-amino-4-hydroxy-4,5-dimethylcyclohexyl)pyridin-3-yl)-6-(2,6-difluoro-4-(2-methoxyethoxy)phenyl)-5-fluoropicolinamide] | 57 nM | 0.08 nM | 6.31 nM | 2.09 nM
2 | CSc1cc(F)c(-c2nc(C(=O)Nc3cnccc3[C@H]3C[C@@H](N)[C@](C)(O)[C@@H](C)C3)ccc2F)c(F)c1 [Example 8, N-(4-((1R,3R,4R,5S)-3-amino-4-hydroxy-4,5-dimethylcyclohexyl)pyridin-3-yl)-6-(2,6-difluoro-4-(methylthio)phenyl)-5-fluoropicolinamide] | 234 nM | 0.08 nM | 6.98 nM | 2.04 nM
3 | C[C@H]1C[C@@H](c2ccncc2NC(=O)c2ccc(F)c(-c3c(F)cc(S(C)(=O)=O)cc3F)n2)C[C@@H](O)[C@]1(C)O [Example 9, 6-(2,6-difluoro-4-(methylsulfonyl)phenyl)-N-(4-((1R,3R,4R,5S)-3,4-dihydroxy-4,5-dimethylcyclohexyl)pyridin-3-yl)-5-fluoropicolinamide] | 4700 nM | 8.54 nM | 1010 nM | 1620 nM
4 | C[C@@H]1C[C@H](c2ccncc2NC(=O)c2ccc(F)c(-c3c(F)cc(S(C)(=O)=O)cc3F)n2)C[C@H](O)[C@@]1(C)O [Example 10, 6-(2,6-difluoro-4-(methylsulfonyl)phenyl)-N-(4-((1S,3S,4S,5R)-3,4-dihydroxy-4,5-dimethylcyclohexyl)pyridin-3-yl)-5-fluoropicolinamide] | > 10000 nM | 14.6 nM | 7110 nM | 4150 nM
5 | Cc1cc(F)c(-c2nc(C(=O)Nc3cnccc3[C@H]3C[C@@H](N)[C@](C)(O)[C@@H](C)C3)ccc2F)c(F)c1 [Example 13, N-(4-((1R,3R,4R,5S)-3-amino-4-hydroxy-4,5-dimethylcyclohexyl)pyridin-3-yl)-6-(2,6-difluoro-4-methylphenyl)-5-fluoropicolinamide] | 42 nM | 0.07 nM | 4.33 nM | 1.16 nM
6 | Cc1cc(F)c(-c2nc(C(=O)Nc3cnccc3[C@H]3C[C@@H](C)[C@](C)(O)[C@@H](N)C3)ccc2F)c(F)c1 [Example 14, N-(4-((1S,3S,4S,5R)-3-amino-4-hydroxy-4,5-dimethyl-cyclohexyl)pyridin-3-yl)-6-(2,6-difluoro-4-methylphenyl)-5-fluoropicolinamide] | 5040 nM | 13.7 nM | 776 nM | 231 nM
7 | C[C@H]1C[C@@H](c2ccncc2NC(=O)c2nc(-c3c(F)cccc3F)ccc2N)C[C@@H](O)[C@@]1(O)CF [Example 18, 3-amino-6-(2,6-difluorophenyl)-N-(4-((1R,3R,4R,5S)-4-(fluoromethyl)-3,4-dihydroxy-5-methylcyclohexyl)pyridin-3-yl) picolinamide] | 714 nM | 0.67 nM | 47 nM | 10.2 nM
8 | COc1cc(F)c(-c2nc(C(=O)Nc3cnccc3[C@H]3C[C@@H](O)[C@](C)(O)[C@@H](C)C3)ccc2F)c(F)c1 [Example 22, 6-(2,6-difluoro-4-methoxyphenyl)-N-(4-((1R,3R,4R,5S)-3,4-dihydroxy-4,5-dimethylcyclohexyl)pyridin-3-yl)-5-fluoropicolinamide] | 382 nM | 0.85 nM | 201 nM | 39.5 nM
9 | CC(C)Oc1cc(F)c(-c2nc(C(=O)Nc3cnccc3[C@H]3C[C@@H](N)[C@](C)(O)[C@@H](C)C3)ccc2F)c(F)c1 [Example 64, N-(4-((1R,3R,4R,5S)-3-amino-4-hydroxy-4,5-dimethylcyclohexyl)pyridin-3-yl)-6-(2,6-difluoro-4-isopropoxyphenyl)-5-fluoropicolinamide] | 165 nM | 0.02 nM | 1.54 nM | 0.54 nM
10 | C[C@H]1C[C@@H](c2ccncc2NC(=O)c2ccc(F)c(-c3c(F)cc(OC4CCOCC4)cc3F)n2)C[C@@H](N)[C@]1(C)O [Example 65, N-(4-((1R,3R,4R,5S)-3-amino-4-hydroxy-4,5-dimethylcyclohexyl)pyridin-3-yl)-6-(2,6-difluoro-4-(tetrahydro-2H-pyran-4-yloxy)phenyl)-5-fluoropicolinamide] | 38 nM | 0.03 nM | 2.14 nM | 0.73 nM
11 | C[C@H]1C[C@@H](c2ccncc2NC(=O)c2ccc(F)c(-c3c(F)cc(C(C)(C)O)cc3F)n2)C[C@@H](N)[C@]1(C)O [Example 66] | 13 nM | 0.03 nM | 2.92 nM | 1.64 nM
12 | C[C@H]1C[C@@H](c2ccncc2NC(=O)c2ccc(F)c(-c3c(F)cc(C4CC4)cc3F)n2)C[C@@H](N)[C@]1(C)O [Example 67, N-(4-((1R,3R,4R,5S)-3-amino-4-hydroxy-4,5-dimethylcyclohexyl)pyridin-3-yl)-6-(4-cyclopropyl-2,6-difluorophenyl)-5-fluoropicolinamide] | 127 nM | 0.01 nM | 2.5 nM | 0.96 nM
13 | C[C@H]1C[C@@H](c2ccncc2NC(=O)c2ccc(F)c(-c3c(F)cc(C4(F)COC4)cc3F)n2)C[C@@H](N)[C@]1(C)O [Example 69, N-(4-((1R,3R,4R,5S)-3-amino-4-hydroxy-4,5-dimethylcyclohexyl)pyridin-3-yl)-6-(2,6-difluoro-4-(3-fluorooxetan-3-yl)phenyl)-5-fluoropicolinamide] | 423 nM | 0.09 nM | 6.42 nM | 4.2 nM
14 | C[C@H]1C[C@@H](c2ccncc2NC(=O)c2ccc(F)c(-c3c(F)cc(C4(F)CCOCC4)cc3F)n2)C[C@@H](N)[C@]1(C)O [Example 70, N-(4-((1R,3R,4R,5S)-3-amino-4-hydroxy-4,5-dimethylcyclohexyl)pyridin-3-yl)-6-(2,6-difluoro-4-(4-fluorotetrahydro-2H-pyran-4-yl)phenyl)-5-fluoropicolinamide] | 136 nM | 0.04 nM | 2.21 nM | 1.73 nM
15 | C[C@H]1C[C@@H](c2ccncc2NC(=O)c2ccc(F)c(-c3c(F)cc(C4CCOCC4)cc3F)n2)C[C@@H](N)[C@]1(C)O [Example 71, N-(4-((1R,3R,4R,5S)-3-amino-4-hydroxy-4,5-dimethylcyclohexyl)pyridin-3-yl)-6-(2,6-difluoro-4-(tetrahydro-2H-pyran-4-yl)phenyl)-5-fluoropicolinamide] | 81 nM | 0.02 nM | 1.47 nM | 0.72 nM
16 | C[C@H]1C[C@@H](c2ccncc2NC(=O)c2ccc(F)c(-c3c(F)cc(C(C)(C)O)cc3F)n2)C[C@@H](O)[C@]1(C)O [Example 73, 6-(2,6-difluoro-4-(2-hydroxypropan-2-yl)phenyl)-N-(4-((1R,3R,4R,5S)-3,4-dihydroxy-4,5-dimethylcyclohexyl)pyridin-3-yl)-5-fluoropicolinamide] | 189 nM | 0.42 nM | 156 nM | 63.1 nM
